The target in assay [1] is human α2δ-1 subunit of Cav2.2 calcium channel (Homo sapiens (Human), UniProt P54289). As to the kind of experiment: Binding assay to human α2δ-1 subunit of Cav2.2 calcium channel ([3H]-Gabapentin). As to conditions: read-out: Ki (nM) alpha2delta Hum. As to the method:
Binding Assay to Human α2δ-1 Subunit of Cav2.2 Calcium Channel.
Human α2δ-1 enriched membranes (2.5 μg) were incubated with 15 nM of radiolabeled [3H]-Gabapentin in assay buffer containing Hepes-KOH 10 mM, pH 7.4.
NSB (non specific binding) was measured by adding 10 μM pregabalin. The binding of the test compound was measured at five different concentrations. After 60 min incubation at 27° C., binding reaction was terminated by filtering through Multiscreen GF/C (Millipore) presoaked in 0.5% polyethyleneimine in Vacuum Manifold Station, followed by 3 washes with ice-cold filtration buffer containing 50 mM Tris-HCl, pH 7.4. Filter plates were dried at 60° C. for 1 h and 30 μl of scintillation cocktail were added to each well before radioactivity reading.
(§1) Readings were performed in a Trilux 1450 Microbeta radioactive counter (Perkin Elmer).

The target in assay [2] is human norepinephrine transporter (NET) (Homo sapiens (Human), UniProt P23975). Briefly: Binding assay to human norepinephrine transporter (NET) ([3H]-Nisoxetin). The following applies: Table 2, dual compounds, human NET enriched membranes, read-out: Ki (nM) NET Hum. As to the method:
Binding Assay to Human Norepinephrine Transporter (NET).
Human norepinephrine transporter (NET) enriched membranes (5 μg) were incubated with 5 nM of radiolabeled [3H]-Nisoxetin in assay buffer containing 50 mM Tris-HCl, 120 mM NaCl, 5 mM KCl, pH 7.4.
NSB (non specific binding) was measured by adding desipramine 10 μM. The binding of the test compound was measured at five different concentrations. After 60 min incubation at 4° C., binding reaction was terminated by filtering through Multiscreen GF/C (Millipore) presoaked in 0.5% polyethyleneimine in Vacuum Manifold Station, followed by 3 washes with ice-cold filtration buffer containing 50 mM Tris-HCl, 0.9% NaCl, pH 7.4.
Filter plates were dried at 60° C. for 1 h and 30 μl of scintillation cocktail were added to each well before radioactivity reading.
as §1

The mark [3] stands for this setting: Table 1, human α2δ-1 enriched membranes.
Setting [4] is: Table 2, dual compounds, human α2δ-1 enriched membranes.

Where two headings read alike, the source gives them in different places.

human norepinephrine transporter (NET), sequence (P23975 whole entry): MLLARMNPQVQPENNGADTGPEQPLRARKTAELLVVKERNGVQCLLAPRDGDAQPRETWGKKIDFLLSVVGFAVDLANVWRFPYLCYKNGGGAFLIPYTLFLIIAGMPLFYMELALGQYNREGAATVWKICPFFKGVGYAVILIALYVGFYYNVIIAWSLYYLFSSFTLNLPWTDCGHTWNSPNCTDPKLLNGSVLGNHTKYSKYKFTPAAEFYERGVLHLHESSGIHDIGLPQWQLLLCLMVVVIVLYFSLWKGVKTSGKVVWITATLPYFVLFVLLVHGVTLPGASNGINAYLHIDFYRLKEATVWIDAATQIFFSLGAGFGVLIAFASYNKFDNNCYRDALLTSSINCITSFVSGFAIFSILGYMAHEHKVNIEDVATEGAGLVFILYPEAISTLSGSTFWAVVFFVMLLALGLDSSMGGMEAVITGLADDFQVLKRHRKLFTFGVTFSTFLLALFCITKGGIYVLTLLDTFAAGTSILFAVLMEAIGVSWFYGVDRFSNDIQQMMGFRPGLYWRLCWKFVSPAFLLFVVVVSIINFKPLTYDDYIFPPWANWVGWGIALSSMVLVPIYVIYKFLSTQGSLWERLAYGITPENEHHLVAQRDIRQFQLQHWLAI
human α2δ-1 subunit of Cav2.2 calcium channel, sequence (P54289 25-1103): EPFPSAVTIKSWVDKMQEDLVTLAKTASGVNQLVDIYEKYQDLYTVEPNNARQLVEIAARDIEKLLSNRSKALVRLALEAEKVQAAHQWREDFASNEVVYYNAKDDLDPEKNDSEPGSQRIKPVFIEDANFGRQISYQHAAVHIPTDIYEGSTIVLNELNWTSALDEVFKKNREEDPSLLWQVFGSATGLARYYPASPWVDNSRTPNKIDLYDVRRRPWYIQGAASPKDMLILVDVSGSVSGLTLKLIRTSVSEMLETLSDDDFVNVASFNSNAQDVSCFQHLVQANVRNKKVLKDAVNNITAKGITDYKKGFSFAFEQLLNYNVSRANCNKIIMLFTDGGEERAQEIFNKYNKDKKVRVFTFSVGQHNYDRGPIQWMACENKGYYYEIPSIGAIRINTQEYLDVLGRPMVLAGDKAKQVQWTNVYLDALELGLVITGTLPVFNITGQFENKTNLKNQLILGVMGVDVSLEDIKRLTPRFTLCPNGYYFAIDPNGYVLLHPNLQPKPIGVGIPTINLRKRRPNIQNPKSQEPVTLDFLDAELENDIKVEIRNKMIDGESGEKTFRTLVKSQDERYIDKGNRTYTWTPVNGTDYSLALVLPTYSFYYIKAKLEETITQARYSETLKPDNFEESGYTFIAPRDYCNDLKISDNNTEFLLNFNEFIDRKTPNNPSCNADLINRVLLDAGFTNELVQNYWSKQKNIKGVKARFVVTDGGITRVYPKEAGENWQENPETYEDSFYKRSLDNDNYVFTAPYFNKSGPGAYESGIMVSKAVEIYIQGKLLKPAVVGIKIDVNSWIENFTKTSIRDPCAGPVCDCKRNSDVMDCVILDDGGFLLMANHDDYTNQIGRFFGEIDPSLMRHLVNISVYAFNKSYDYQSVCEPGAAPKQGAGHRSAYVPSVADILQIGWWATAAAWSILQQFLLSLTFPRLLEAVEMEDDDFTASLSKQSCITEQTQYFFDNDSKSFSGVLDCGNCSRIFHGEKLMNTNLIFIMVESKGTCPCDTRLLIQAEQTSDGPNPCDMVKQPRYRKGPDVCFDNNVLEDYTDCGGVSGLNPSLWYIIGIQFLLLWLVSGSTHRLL

With `CNCC[C@@H](Oc1cccc2cnccc12)c1ccc(F)s1` [Example 52, (R)-3-(5-fluorothiophen-2-yl)-3-(isoquinolin-5-yloxy)-N-methylpropan-1-amine], the Ki in assay [1] (setting [3]) was less than 100 nM; in assay [1] (setting [4]), less than 100 nM; in assay [2] it was 100 to 500 nM.

On to `CNCC[C@@H](Oc1cccc2ncccc12)c1ccc(F)s1` [Example 53, (R)-3-(5-fluorothiophen-2-yl)-N-methyl-3-(quinolin-5-yloxy)propan-1-amine], for which the Ki in assay [1] (setting [3]) is less than 100 nM; in assay [1] (setting [4]), less than 100 nM; in assay [2] it was 100 to 500 nM.

With `CNCCC(Oc1ccc2cnccc2c1)c1cccs1` (stereo not drawn) [Example 54, 3-(isoquinolin-6-yloxy)-N-methyl-3-(thiophen-2-yl)propan-1-amine], the Ki in assay [1] (setting [3]) is 500 to 3000 nM; in assay [1] (setting [4]), 500 to 3000 nM; in assay [2] it was 100 to 500 nM.

For `CNCCC(Oc1cccc2cnccc12)c1ccsc1` (stereo not drawn) [Example 56, 3-(isoquinolin-5-yloxy)-N-methyl-3-(thiophen-3-yl)propan-1-amine], the Ki in assay [1] (setting [3]) was 100 to 500 nM; in assay [1] (setting [4]) it was 100 to 500 nM; in assay [2] it was less than 100 nM.

Regarding `CNCCC(Oc1cccc2ccncc12)c1ccsc1` (stereo not drawn) [Example 58, 3-(isoquinolin-8-yloxy)-N-methyl-3-(thiophen-3-yl)propan-1-amine], the Ki lay within 100 to 500 nM in assay [1] (setting [3]), 100 to 500 nM in assay [1] (setting [4]) and 500 to 1000 nM in assay [2].

Regarding `CNCC[C@@H](Oc1cccc2cnccc12)c1ccsc1` [Example 60, (R)-3-(isoquinolin-5-yloxy)-N-methyl-3-(thiophen-3-yl)propan-1-amine], the Ki in assay [1] (setting [3]), in assay [1] (setting [4]) and in assay [2] was 100 to 500 nM each time.

Take `CNCC[C@@H](Oc1cccc2ccncc12)c1ccsc1` [Example 61, (R)-3-(isoquinolin-8-yloxy)-N-methyl-3-(thiophen-3-yl)propan-1-amine]: the Ki in assay [1] (setting [3]), in assay [1] (setting [4]) and in assay [2] was 100 to 500 nM each time.

As for `CNCC[C@@H](Oc1cccc2ccnc(C)c12)c1cccs1` [Example 62, (R)-N-methyl-3-((1-methylisoquinolin-8-yl)oxy)-3-(thiophen-2-yl)propan-1-amine], the figures for the Ki in assay [1] (setting [3]), in assay [1] (setting [4]) and in assay [2] were less than 100 nM, less than 100 nM and 500 to 1000 nM, respectively.

Consider `CNCC[C@H](Oc1cccc2c(C)nccc12)c1cccs1` [Example 65, (S)-N-methyl-3-((1-methylisoquinolin-5-yl)oxy)-3-(thiophen-2-yl)propan-1-amine], for which the Ki in assay [1] (setting [3]) is not below 3000 nM; in assay [1] (setting [4]) it was not below 3000 nM; in assay [2], 100 to 500 nM.

With `CNCC[C@H](Oc1cccc2ncccc12)c1ccsc1` [Example 67, (S)-N-methyl-3-(quinolin-5-yloxy)-3-(thiophen-3-yl)propan-1-amine], the Ki in assay [1] (setting [3]), in assay [1] (setting [4]) and in assay [2] was 100 to 500 nM each time.

With `CNCC[C@H](Oc1cccc2cnccc12)c1ccsc1` [Example 68, (S)-3-(isoquinolin-5-yloxy)-N-methyl-3-(thiophen-3-yl)propan-1-amine], the Ki in assay [1] (setting [3]) is not below 3000 nM; in assay [1] (setting [4]), not below 3000 nM; in assay [2] it was less than 100 nM.

As to `CNCC[C@H](Oc1cccc2ccncc12)c1ccsc1` [Example 69, (S)-3-(isoquinolin-8-yloxy)-N-methyl-3-(thiophen-3-yl)propan-1-amine], the figures for the Ki in assay [1] (setting [3]), in assay [1] (setting [4]) and in assay [2] were not below 3000 nM, not below 3000 nM and 500 to 1000 nM, respectively.

Consider `CNCCC(Oc1cccc2cnccc12)c1nccs1` (stereo not drawn) [Example 71, 3-(isoquinolin-5-yloxy)-N-methyl-3-(thiazol-2-yl)propan-1-amine], for which the Ki in assay [1] (setting [3]) fell in the range of 500 to 3000 nM; in assay [1] (setting [4]), 500 to 3000 nM; in assay [2], 100 to 500 nM.

As for `CNCCC(Oc1cccc2ncccc12)c1nccs1` (stereo not drawn) [Example 72, N-methyl-3-(quinolin-5-yloxy)-3-(thiazol-2-yl)propan-1-amine], the Ki was 100 to 500 nM in assay [1] (setting [3]), 100 to 500 nM in assay [1] (setting [4]) and 500 to 1000 nM in assay [2].

In the case of `CNCCC(Oc1ccc2ccncc2c1)c1cccs1` (stereo not drawn) [Example 74, 3-(isoquinolin-7-yloxy)-N-methyl-3-(thiophen-2-yl)propan-1-amine], the Ki in assay [1] (setting [3]) is not below 3000 nM; in assay [1] (setting [4]) it was not below 3000 nM; in assay [2], 100 to 500 nM.

Take `CNCC[C@H](Oc1cccc2ncccc12)c1ccc(Cl)s1` [Example 78, (S)-3-(5-Chlorothiophen-2-yl)-N-methyl-3-(quinolin-5-yloxy)propan-1-amine]: the Ki is 500 to 3000 nM in assay [1] (setting [3]), 500 to 3000 nM in assay [1] (setting [4]) and 100 to 500 nM in assay [2].

For the compound `CNCC[C@@H](Oc1cccc2ncccc12)c1ccc(Cl)s1` [Example 79, (R)-3-(5-chlorothiophen-2-yl)-N-methyl-3-(quinolin-5-yloxy)propan-1-amine], the Ki in assay [1] (setting [3]) is less than 100 nM; in assay [1] (setting [4]), less than 100 nM; in assay [2] it was 500 to 1000 nM.

As to `CNCC[C@@H](Oc1cccc2ccncc12)c1ccc(F)s1` [Example 81, (R)-3-(5-fluorothiophen-2-yl)-3-(isoquinolin-8-yloxy)-N-methylpropan-1-amine], the Ki in assay [1] (setting [3]), in assay [1] (setting [4]) and in assay [2] was 100 to 500 nM in each case.

With `CNCC[C@H](Oc1cccc2cnccc12)c1sccc1F` [Example 82, (S)-3-(3-Fluorothiophen-2-yl)-3-(isoquinolin-5-yloxy)-N-methylpropan-1-amine], the Ki was not below 3000 nM in assay [1] (setting [3]), not below 3000 nM in assay [1] (setting [4]) and less than 100 nM in assay [2].

For `CNCC[C@@H](Oc1cccc2cnccc12)c1sccc1F` [Example 83, (R)-3-(3-fluorothiophen-2-yl)-3-(isoquinolin-5-yloxy)-N-methylpropan-1-amine], the Ki in assay [1] (setting [3]), in assay [1] (setting [4]) and in assay [2] was 100 to 500 nM each time.

Take `CNCC[C@H](Oc1cccc2ncccc12)c1sccc1F` [Example 84, (S)-3-(3-Fluorothiophen-2-yl)-N-methyl-3-(quinolin-5-yloxy)propan-1-amine]: the Ki in assay [1] (setting [3]) was 500 to 3000 nM; in assay [1] (setting [4]), 500 to 3000 nM; in assay [2], 100 to 500 nM.

Turning to `CNCC[C@@H](Oc1cccc2ncccc12)c1sccc1F` [Example 85, (R)-3-(3-fluorothiophen-2-yl)-N-methyl-3-(quinolin-5-yloxy)propan-1-amine], the Ki in assay [1] (setting [3]) fell in the range of 500 to 3000 nM; in assay [1] (setting [4]), 500 to 3000 nM; in assay [2], 100 to 500 nM.

Turning to `CNCC[C@H](Oc1cccc2ccncc12)c1sccc1F` [Example 86, (S)-3-(3-Fluorothiophen-2-yl)-3-(isoquinolin-8-yloxy)-N-methylpropan-1-amine], the Ki is not below 3000 nM in assay [1] (setting [3]), not below 3000 nM in assay [1] (setting [4]) and 100 to 500 nM in assay [2].

In the case of `CNCC[C@@H](Oc1cccc2ccncc12)c1sccc1F` [Example 87, (R)-3-(3-fluorothiophen-2-yl)-3-(isoquinolin-8-yloxy)-N-methylpropan-1-amine], the Ki in assay [1] (setting [3]), in assay [1] (setting [4]) and in assay [2] was 100 to 500 nM in each case.

In the case of `CNCC[C@@H](Oc1cnc2ccccc2c1)c1cccs1` [Example 94, (R)-N-methyl-3-(quinolin-3-yloxy)-3-(thiophen-2-yl)propan-1-amine], the Ki in assay [1] (setting [3]) is not below 3000 nM; in assay [1] (setting [4]), not below 3000 nM; in assay [2] it was 100 to 500 nM.

(Values after patent publication US10941138B2, “Quinoline and isoquinoline derivatives for treating pain and pain related conditions” (ESTEVE PHARMACEUTICALS, S.A., priority 2016, dated 2021).)
